This is an account of results in US20230120597A1, “CO-AGONISTS AT GLP-1 AND GIP RECEPTORS SUITABLE FOR ORAL DELIVERY” (Novo Nordisk A/S, priority 2020, published 2023).

Read-outs that look alike come from different tables or passages of the source. Starred links: 1 amine or outer side, 2 acyl side, 3 side chain; linkers in the order of their positions; H or OH if unused. Non-standard residues stand in square brackets, D forms with d. Residues, ends and D or L forms follow the SMILES beside them. Groups on a side chain read outwards from the residue. *: point of attachment. C18 diacid = O=C(O)CCCCCCCCCCCCCCCCC(=O)*; γGlu = O=C(O)[C@H](CCC(=O)[*:2])N[*:1]; εLys = N[C@@H](CCCCN[*:1])C(=O)[*:2]; AEEA = NCCOCCOCC(=O)O; Aib = CC(C)(N)C(=O)O

One data set addresses T1, human GLP-1 receptor (Homo sapiens, UniProt P43220).
T1 construct: expressed in transfected cells; host or cells: BHK (parent line BHKTS13), clone BHK CRE luc2P hGLP-1R
Kind of data set: In vitro functional potency, CRE luciferase reporter gene assay, whole BHK cells expressing hGLP-1R. To be noted: BHK CRE luc2P hGLP-1R cells. The format is cell-based. Here is the method:
(§1) The in vitro functional potency is the measure of target receptor activation in a whole cell assay.
(§2) In vitro functional potency was determined by measuring the response of the target receptor in a reporter gene assay in individual cell lines. […] When the respective receptor is activated, it results in the production of cAMP, which in turn results in expression of the luciferase protein. When assay incubation is completed, luciferase substrate (luciferin) is added resulting in the enzymatic conversion of luciferin to oxyluciferin and producing bioluminescence. The luminescence is measured as the readout for the assay.
(§3) The cells lines used in these assays were BHK cells with BHKTS13 as a parent cell line. The cell lines were derived from a clone containing the CRE luciferase element and were established by further transfection with the respective human receptor to obtain the relevant cell line: BHK CRE luc2P hGLP-1R or BHK CRE luc2P hGIPR. The cells were cultured at 37° C. with 5% CO2 in Cell Culture Medium. They were aliquoted and stored in liquid nitrogen. The cells were kept in continuous culture and were seeded out the day before each assay.
(§4) GLP-1R Cell Culture Medium consisted of DMEM medium with 10% FBS, 500 μg/mL G418, and 300 μg/mL hygromycin. GIPR Cell Culture Medium consisted of DMEM medium with 10% FBS, 400 μg/mL G418, and 300 μg/mL hygromycin. Assay Buffer consisted of DMEM w/o phenol red, 10 mM Hepes, 1× Glutamax. 1% ovalbumin, and 0.1% Pluronic F-68 with the addition of HSA at twice the final assay concentration.
(§5) Procedure • 1) Cells were plated at 5000 cells/well and incubated overnight in the assay plate. • 2) Cells were washed once in DPBS. • 3) Stocks of the test compounds and reference compounds in concentrations ranging from […] were diluted 1:150 in Assay Buffer. Compounds were then diluted 1:10 in column 1 of a 96 deep well dilution plate and then carried across the row creating a 3.5 fold, 12 point dilution curve. • 4) Assay Buffer (50 μl aliquot) with or without HSA was added to each well in the assay plate. • 5) A 50 μl aliquot of compound or blank was transferred from the dilution plate to the assay plate containing the Assay Buffer with or without HSA. • 6) The assay plate was incubated for 3 h in a 5% CO2 incubator at 37° C. • 7) The cells were washed once with DPBS. • 8) A 100 μl aliquot of DPBS was added to each well of the assay plate. • 9) A 100 μl aliquot of steadylite plus reagent (light sensitive) was added to each well of the assay plate. • 10) Each assay plate was covered with aluminum foil to protect it from light and shaken at 250 RPM for 30 min at room temperature. • 11) Each assay plate was read in a microtiter plate reader.
(§6) The data from the microtiter plate reader was first regressed in an Excel in order to calculate the x-axis, log scale concentrations based on the individual test compound's stock concentration and the dilutions of the assay. […] The software performs a non-linear regression (log(agonist) vs response). A minimum of two replicates was measured for each sample. The reported values are averages of the replicates.
(In general: In a reporter assay the amount or activity of a reporter protein is the signal.)

In the next data set the target is T2, human GIP receptor (Homo sapiens, UniProt P48546).
T2 construct: expressed in transfected cells; host or cells: BHK (parent line BHKTS13), clone BHK CRE luc2P hGIPR
T2 sequence (P48546 22-466): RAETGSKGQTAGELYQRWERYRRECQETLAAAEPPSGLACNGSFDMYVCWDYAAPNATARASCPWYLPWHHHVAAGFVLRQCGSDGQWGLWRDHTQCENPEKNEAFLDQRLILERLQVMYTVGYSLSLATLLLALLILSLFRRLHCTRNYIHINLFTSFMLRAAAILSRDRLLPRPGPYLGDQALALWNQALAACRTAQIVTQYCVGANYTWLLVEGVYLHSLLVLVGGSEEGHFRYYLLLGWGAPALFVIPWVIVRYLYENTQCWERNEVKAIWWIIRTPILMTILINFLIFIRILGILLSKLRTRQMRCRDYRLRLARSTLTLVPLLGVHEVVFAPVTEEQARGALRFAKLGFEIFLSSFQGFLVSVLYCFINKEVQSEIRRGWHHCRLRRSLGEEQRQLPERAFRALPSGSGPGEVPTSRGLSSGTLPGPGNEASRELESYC
Description: In vitro functional potency, CRE luciferase reporter gene assay, whole BHK cells expressing hGIPR. Format: cell-based. The conditions noted are these: BHK CRE luc2P hGIPR cells. The procedure: as §1, §2, §3, §4, §5, §6

A short description of data set [1]: Pharmacokinetic study in dogs, oral dosing of tablet compositions with SNAC. The conditions noted are these: dog, in vivo, po; for Tmax / half-life: male, beagle; for half-life: t1/2. Format: in vivo, Beagle dogs. The method, boiled down: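 The tablets held 3-4 mg compound plus 100-300 mg SNAC and were given to fasted male beagles (6-8 per group); non-compartmental PK per animal.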

Setting [2] is: 0% HSA, read-out: hGLP-1R, CRE Luc 0% HSA EC50.
The mark [3] stands for this setting: hGLP-1R, CRE Luc 1% HSA EC50, 1% HSA.
The mark [4] stands for this setting: 0% HSA, read-out: hGIPR, CRE Luc 0% HSA EC50.
Where [5] appears, read: hGIPR, CRE Luc 1% HSA EC50, 1% HSA.

T1 sequence (P43220 24-463): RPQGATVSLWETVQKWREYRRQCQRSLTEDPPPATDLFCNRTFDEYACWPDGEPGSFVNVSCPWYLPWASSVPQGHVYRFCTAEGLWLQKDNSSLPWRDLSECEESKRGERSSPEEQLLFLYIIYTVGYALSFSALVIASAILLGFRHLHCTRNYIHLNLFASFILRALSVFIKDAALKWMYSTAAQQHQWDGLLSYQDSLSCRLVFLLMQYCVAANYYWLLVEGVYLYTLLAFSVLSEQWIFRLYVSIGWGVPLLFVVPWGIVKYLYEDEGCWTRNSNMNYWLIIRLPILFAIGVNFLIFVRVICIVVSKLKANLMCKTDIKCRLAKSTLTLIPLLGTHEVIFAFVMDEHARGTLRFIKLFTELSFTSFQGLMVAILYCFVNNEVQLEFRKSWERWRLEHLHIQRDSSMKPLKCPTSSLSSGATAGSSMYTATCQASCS

The term EC50 denotes the concentration needed to bring the measured effect to its halfway point. In general, Tmax refers to the time from dosing to the highest level. In general, half-life refers to the time in which the quantity being followed falls by half. A lower half-life goes with fast loss. On to `CC[C@H](C)[C@H](NC(=O)[C@H](Cc1ccccc1)NC(=O)[C@H](CCC(=O)O)NC(=O)[C@H](CCCNC(=N)N)NC(=O)[C@H](C)NC(=O)[C@H](C)NC(=O)[C@H](CCC(N)=O)NC(=O)[C@H](CCCCNC(=O)[C@@H](N)CCCCNC(=O)[C@@H](N)CCCCNC(=O)CC[C@H](NC(=O)CCCCCCCCCCCCCCCCC(=O)O)C(=O)O)NC(=O)[C@H](CCC(=O)O)NC(=O)[C@H](CC(C)C)NC(=O)[C@H](Cc1ccc(O)cc1)NC(=O)[C@@H](NC(=O)[C@H](CO)NC(=O)[C@H](Cc1ccc(O)cc1)NC(=O)[C@H](CC(=O)O)NC(=O)[C@H](CO)NC(=O)[C@@H](NC(=O)[C@H](Cc1ccccc1)NC(=O)[C@@H](NC(=O)CNC(=O)[C@H](CCC(=O)O)NC(=O)C(C)(C)NC(=O)[C@@H](N)Cc1ccc(O)cc1)[C@@H](C)O)[C@@H](C)O)[C@@H](C)CC)C(=O)N[C@@H](CCC(=O)O)C(=O)N[C@@H](Cc1c[nH]c2ccccc12)C(=O)N[C@@H](CC(C)C)C(=O)N[C@@H](CC(C)C)C(=O)N[C@@H](C)C(=O)NCC(=O)NCC(=O)N1CCC[C@H]1C(=O)N[C@@H](CO)C(=O)N[C@@H](CO)C(=O)NCC(=O)N[C@@H](C)C(=O)N1CCC[C@H]1C(=O)N1CCC[C@H]1C(=O)N1CCC[C@H]1C(=O)N[C@@H](CO)C(=O)O` [Compound No. 9] (H-Y[Aib]EGTFTSDYSIYLEK([εLys-εLys-γGlu-C18 diacid])QAAREFIEWLLAGGPSSGAPPPS-OH), for which the EC50 on human GLP-1 receptor (setting [2]) came to 0.0038 nM; on human GLP-1 receptor (setting [3]) it was 0.279 nM; at human GIP receptor (setting [4]) it was […]; at human GIP receptor (setting [5]), […]. The molecule also returned an AUC/Dose in data set [1] of […]. For the same molecule, in data set [1], the Tmax came to 2 h. The same molecule showed a half-life in data set [1] of […].
For `CC[C@H](C)[C@H](NC(=O)[C@H](Cc1ccccc1)NC(=O)[C@H](CCC(=O)O)NC(=O)[C@H](CCCNC(=N)N)NC(=O)[C@H](C)NC(=O)[C@H](C)NC(=O)[C@H](CCC(N)=O)NC(=O)[C@H](CCCCNC(=O)COCCOCCNC(=O)COCCOCCNC(=O)CC[C@H](NC(=O)CCCCCCCCCCCCCCCCC(=O)O)C(=O)O)NC(=O)[C@H](CCC(=O)O)NC(=O)[C@H](CC(C)C)NC(=O)[C@H](Cc1ccc(O)cc1)NC(=O)[C@@H](NC(=O)[C@H](CO)NC(=O)[C@H](Cc1ccc(O)cc1)NC(=O)[C@H](CC(=O)O)NC(=O)[C@H](CO)NC(=O)[C@@H](NC(=O)[C@H](Cc1ccccc1)NC(=O)[C@@H](NC(=O)CNC(=O)[C@H](CCC(=O)O)NC(=O)C(C)(C)NC(=O)[C@@H](N)Cc1ccc(O)cc1)[C@@H](C)O)[C@@H](C)O)[C@@H](C)CC)C(=O)N[C@@H](CCC(=O)O)C(=O)N[C@@H](Cc1c[nH]c2ccccc12)C(=O)N[C@@H](CC(C)C)C(=O)N[C@@H](CC(C)C)C(=O)N[C@@H](C)C(=O)NCC(=O)NCC(=O)N1CCC[C@H]1C(=O)N[C@@H](CO)C(=O)N[C@@H](CO)C(=O)NCC(=O)N[C@@H](C)C(=O)N1CCC[C@H]1C(=O)N1CCC[C@H]1C(=O)N1CCC[C@H]1C(=O)N[C@@H](CO)C(=O)O` [Compound No. 10] (H-Y[Aib]EGTFTSDYSIYLEK([AEEA-AEEA-γGlu-C18 diacid])QAAREFIEWLLAGGPSSGAPPPS-OH), the EC50 stood at 0.0039 nM on human GLP-1 receptor (setting [2]), 0.94 nM on human GLP-1 receptor (setting [3]), 0.0113 nM at human GIP receptor (setting [4]) and 1.75 nM at human GIP receptor (setting [5]). Also, in data set [1], the AUC/Dose was 8.4 kg·h/L. The time of peak concentration (Tmax) in data set [1] stood at 1 h. Besides, the half-life in data set [1] is 36 h.
For the molecule `CC[C@H](C)[C@H](NC(=O)[C@H](Cc1ccccc1)NC(=O)[C@H](CCC(=O)O)NC(=O)[C@H](CCCNC(=N)N)NC(=O)[C@H](C)NC(=O)[C@H](C)NC(=O)[C@H](CCC(N)=O)NC(=O)[C@H](CCCCNC(=O)[C@@H](N)CCCCNC(=O)[C@@H](N)CCCCNC(=O)CC[C@H](NC(=O)CCCCCCCCCCCCCCCCC(=O)O)C(=O)O)NC(=O)[C@H](CCC(=O)O)NC(=O)[C@H](CC(C)C)NC(=O)[C@H](Cc1ccc(O)cc1)NC(=O)[C@@H](NC(=O)[C@H](CO)NC(=O)[C@H](Cc1ccc(O)cc1)NC(=O)[C@H](CC(=O)O)NC(=O)[C@H](CO)NC(=O)[C@@H](NC(=O)[C@H](Cc1ccccc1)NC(=O)[C@@H](NC(=O)CNC(=O)[C@H](CCC(=O)O)NC(=O)C(C)(C)NC(=O)[C@@H](N)Cc1ccc(O)cc1)[C@@H](C)O)[C@@H](C)O)[C@@H](C)CC)C(=O)N[C@@H](CCC(=O)O)C(=O)N[C@@H](Cc1c[nH]c2ccccc12)C(=O)N[C@@H](CC(C)C)C(=O)N[C@@H](CC(C)C)C(=O)N[C@@H](CCCNC(=N)N)C(=O)NCC(=O)NCC(=O)N1CCC[C@H]1C(=O)N[C@@H](CO)C(=O)N[C@@H](CO)C(=O)NCC(=O)N[C@@H](C)C(=O)N1CCC[C@H]1C(=O)N1CCC[C@H]1C(=O)N1CCC[C@H]1C(=O)N[C@@H](CO)C(=O)O` [Compound No. 12] (H-Y[Aib]EGTFTSDYSIYLEK([εLys-εLys-γGlu-C18 diacid])QAAREFIEWLLRGGPSSGAPPPS-OH; N-terminus assumed), the EC50 amounted to 0.004 nM on human GLP-1 receptor (setting [2]), 0.0544 nM on human GLP-1 receptor (setting [3]), 0.009 nM on human GIP receptor (setting [4]) and 0.0715 nM on human GIP receptor (setting [5]).
As to `CC[C@H](C)[C@H](NC(=O)[C@H](CO)NC(=O)[C@H](Cc1ccc(O)cc1)NC(=O)[C@H](CC(=O)O)NC(=O)[C@H](CO)NC(=O)[C@@H](NC(=O)[C@H](Cc1ccccc1)NC(=O)[C@@H](NC(=O)CNC(=O)[C@H](CCC(=O)O)NC(=O)C(C)(C)NC(=O)[C@@H](N)Cc1ccc(O)cc1)[C@@H](C)O)[C@@H](C)O)C(=O)N[C@@H](C)C(=O)N[C@@H](CC(C)C)C(=O)N[C@@H](CCC(=O)O)C(=O)N[C@@H](CCCCNC(=O)[C@@H](N)CCCCNC(=O)[C@@H](N)CCCCNC(=O)CC[C@H](NC(=O)CCCCCCCCCCCCCCCCC(=O)O)C(=O)O)C(=O)N[C@@H](CCC(N)=O)C(=O)N[C@@H](C)C(=O)N[C@@H](C)C(=O)N[C@@H](CCCNC(=N)N)C(=O)N[C@@H](CCC(=O)O)C(=O)N[C@@H](Cc1ccccc1)C(=O)N[C@H](C(=O)N[C@@H](CC(N)=O)C(=O)N[C@@H](Cc1c[nH]c2ccccc12)C(=O)N[C@@H](CC(C)C)C(=O)N[C@@H](CC(C)C)C(=O)N[C@@H](C)C(=O)NCC(=O)NCC(=O)N1CCC[C@H]1C(=O)N[C@@H](CO)C(=O)N[C@@H](CO)C(=O)NCC(=O)N[C@@H](C)C(=O)N1CCC[C@H]1C(=O)N1CCC[C@H]1C(=O)N1CCC[C@H]1C(=O)N[C@@H](CO)C(=O)O)[C@@H](C)CC` [Compound No. 14] (H-Y[Aib]EGTFTSDYSIALEK([εLys-εLys-γGlu-C18 diacid])QAAREFINWLLAGGPSSGAPPPS-OH), the EC50 amounted to 0.0054 nM at human GLP-1 receptor (setting [2]), 0.306 nM at human GLP-1 receptor (setting [3]), 0.0116 nM on human GIP receptor (setting [4]) and 0.58 nM at human GIP receptor (setting [5]).
